Experimental data published in the NIST ThermoML archive (doi:10.1016/j.jct.2010.05.011).

What was measured:
[1] = refractive index (Na D-line) (dimensionless); settings: 101.33 kPa, Liquid, Standard Abbe refractometry
[2] = 101.33 kPa, Liquid; for speed of sound: Sing-around technique in a fixed-path interferometer; for mass density: Vibrating tube method; for viscosity: Capillary tube (Ostwald / Ubbelohde) method

CCOS(=O)(=O)[O-].CCc1cccc[n+]1CC [1,2-diethylpyridinium ethylsulfate]
Settings | mass density, [2] [kg/m3] | refractive index, [1] | speed of sound, [2] [m/s] | viscosity, [2] [mPa·s]
293.15 K | 1223.6 | 1.5146 | 1759.3 | –
298.15 K | 1220.2 | 1.51328 | 1745.6 | 324.7
303.15 K | 1217 | 1.51192 | 1731.3 | 233.2
308.15 K | 1213.9 | 1.51057 | 1718.6 | 175.8
313.15 K | 1210.3 | 1.5092 | 1705.7 | 135.5
318.15 K | 1206.8 | 1.50788 | 1693 | 104
323.15 K | 1203.4 | 1.50648 | 1680.5 | 83.3
328.15 K | 1200.1 | 1.50513 | 1668.1 | 67.2
333.15 K | 1196.8 | 1.50376 | 1656.2 | 55
338.15 K | 1193.6 | 1.50239 | 1644.3 | 45.6
343.15 K | 1190.3 | 1.5009 | 1632.7 | 38.12

COS(=O)(=O)[O-].Cc1ccc[n+](C)c1 [1,3-dimethylpyridinium methyl sulfate]
Settings | mass density, [2] [kg/m3] | refractive index, [1] | speed of sound, [2] [m/s] | viscosity, [2] [mPa·s]
293.15 K | 1305.87 | 1.5147 | 1834.9 | –
298.15 K | 1302.51 | 1.5133 | 1822.2 | 128.6
303.15 K | 1299.14 | 1.51184 | 1809.7 | 97.1
308.15 K | 1295.77 | 1.51051 | 1797.5 | 76.8
313.15 K | 1292.42 | 1.50911 | 1785.4 | 61.2
318.15 K | 1289.07 | 1.5077 | 1773.5 | 49.6
323.15 K | 1285.74 | 1.5062 | 1761.7 | 40.86
328.15 K | 1282.42 | 1.50472 | 1750 | 34.19
333.15 K | 1279.11 | 1.50331 | 1738.4 | 28.8
338.15 K | 1275.82 | 1.50193 | 1726.9 | 24.58
343.15 K | 1272.55 | 1.50046 | 1715.6 | 21.15
